Source: patent US20250179103A1, “6-OXODECAHYDROPYRROLO[1,2-A][1,5]DIAZOCINE AND 6-OXODECAHYDRO-4H-PYRROLO[2,1-D][1,5]THIAZOCINE DERIVATIVES AS STAT3 AND STAT6 MODULATORS FOR THE TREATMENT OF CANCER AND INFLAMMATORY CONDITIONS” (Recludix Pharma, Inc., priority 2022, published 2025)

What was measured:
[1] = target: T1, Recombinant STAT6 protein (STAT6(W123-T658)) (Homo sapiens, UniProt P42226); experiment: STAT6 Fluorescence Polarization (FP) Assay; type: binding; conditions: STAT6(W123-T658) 250 nM, probe 5-FAM-ApYKPFQDLI-NH2 2 nM, 45-minute incubation
T1 construct: Recombinant STAT6 protein (STAT6(W123-T658))
T1 sequence (P42226 123-658): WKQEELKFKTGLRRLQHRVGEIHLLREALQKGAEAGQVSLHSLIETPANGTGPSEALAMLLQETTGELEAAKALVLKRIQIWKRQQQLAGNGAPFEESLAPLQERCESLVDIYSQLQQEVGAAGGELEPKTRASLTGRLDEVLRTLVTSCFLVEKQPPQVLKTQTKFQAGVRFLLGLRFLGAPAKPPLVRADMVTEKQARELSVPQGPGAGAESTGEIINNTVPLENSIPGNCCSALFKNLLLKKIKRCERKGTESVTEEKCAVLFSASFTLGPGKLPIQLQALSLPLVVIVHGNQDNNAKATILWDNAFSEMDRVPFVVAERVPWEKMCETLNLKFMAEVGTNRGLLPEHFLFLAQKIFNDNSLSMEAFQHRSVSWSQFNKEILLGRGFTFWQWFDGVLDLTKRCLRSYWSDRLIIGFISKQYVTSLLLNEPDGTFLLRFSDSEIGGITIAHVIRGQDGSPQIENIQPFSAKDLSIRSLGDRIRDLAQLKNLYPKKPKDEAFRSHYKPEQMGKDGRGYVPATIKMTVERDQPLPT
Description: STAT6 Fluorescence Polarization (FP) Assay
An FP assay was developed to determine IC50 values for test substances. Recombinant STAT6 protein (STAT6(W123-T658)) at 250 nM was combined with a fluorescently labeled, phosphotyrosine peptide probe (5-FAM-ApYKPFQDLI-NH2) at 2 nM in FP buffer (10 mM HEPES pH 7.4, 50 mM NaCl, 1 mM EDTA, 0.05% Tween 20.2 mM DTT). 50 μL of STAT6-probe mixture was added to serial diluted compounds in black, 96-well plates (Greiner BioOne 655076) to a final concentration of 1% DMSO. Reaction components were mixed, and FP was measured after 45-minute incubation at room temperature using a Tecan Spark multimode plate reader. FP signal (mP) was plotted against the log concentration of the test substances and IC50 values were calculated by nonlinear regression analysis using GraphPad Prism software. For STAT6 FP assay, A=≤300 nM; B=>300-3000 nM; C=>3-30 μM; and D=>30 μM.

[2] = target: T2, Recombinant STAT3 protein (STAT3(G127-I722)) (Homo sapiens, UniProt P40763); experiment: STAT3 Fluorescence Polarization (FP) Assay; type: binding; conditions: STAT3(G127-I722) 25 nM, probe 5-FAM-GpYLPQTV-NH2 2 nM, 45-minute incubation
T2 construct: Recombinant STAT3 protein (STAT3(G127-I722))
T2 sequence (P40763 127-722): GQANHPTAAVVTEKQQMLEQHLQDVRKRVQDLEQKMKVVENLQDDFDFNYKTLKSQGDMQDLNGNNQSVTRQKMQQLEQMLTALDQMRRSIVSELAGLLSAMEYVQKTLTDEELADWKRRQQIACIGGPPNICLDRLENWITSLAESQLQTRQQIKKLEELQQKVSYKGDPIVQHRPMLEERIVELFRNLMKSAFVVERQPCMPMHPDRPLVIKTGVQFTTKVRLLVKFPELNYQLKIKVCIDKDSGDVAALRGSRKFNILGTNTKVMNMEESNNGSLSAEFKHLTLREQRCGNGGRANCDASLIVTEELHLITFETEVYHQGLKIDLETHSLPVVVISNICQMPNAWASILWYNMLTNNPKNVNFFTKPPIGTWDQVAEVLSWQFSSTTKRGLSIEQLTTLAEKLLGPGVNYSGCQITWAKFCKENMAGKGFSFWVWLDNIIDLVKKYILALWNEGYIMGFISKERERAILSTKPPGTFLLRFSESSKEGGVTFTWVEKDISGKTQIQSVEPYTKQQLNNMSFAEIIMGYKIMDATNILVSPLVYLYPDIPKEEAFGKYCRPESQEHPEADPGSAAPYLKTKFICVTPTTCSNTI
Description: STAT3 Fluorescence Polarization (FP) Assay
An FP assay was developed to determine IC50 values for test substances. Recombinant STAT3 protein (STAT3(G127-I722)) at 25 nM was combined with a fluorescently labeled, phosphotyrosine peptide probe (5-FAM-GpYLPQTV-NH2) at 2 nM in FP buffer (10 mM HEPES pH 7.4, 50 mM NaCl, 1 mM EDTA, 0.05% Tween 20.2 mM DTT). 50 μL of STAT3-probe mixture was added to serial diluted compounds in black, 96-well plates (Greiner BioOne 655076) to a final concentration of 1% DMSO. Reaction components were mixed, and FP was measured after 45-minute incubation at room temperature using a Tecan Spark multimode plate reader. FP signal (mP) was plotted against the log concentration of the test substances and IC50 values were calculated by nonlinear regression analysis using GraphPad Prism software. For STAT3 FP assay, A=≤100 nM; B=>100-1000 nM; C=>1-10 μM; and D=>10 μM.

Row | IC50 [1] [nM] | IC50 [2] [nM] | Compound
1 | ≤ 300 | 1000 to 10000 | N#C[C@H]1CN(C(=O)[C@@H]2CC[C@@H]3CN(C(=O)OCc4ccccc4)CC[C@H](NC(=O)c4ccc5ccc(C(F)(F)P(=O)(O)O)cc5c4)C(=O)N32)C[C@@H]1c1ccccc1 (relative stereo) [Compound 213, ((7-(((5S,8S,10aR)-2-((benzyloxy)carbonyl)-8-((rel-trans)-3-cyano-4-phenylpyrrolidine-1-carbonyl)-6-oxodecahydropyrrolo[1,2-a][1,4]diazocin-5-yl)carbamoyl)naphthalen-2-yl)difluoromethyl)phosphonic acid]
2 | ≤ 300 | 1000 to 10000 | CCN1CC[C@H](NC(=O)c2ccc3ccc(C(F)(F)P(=O)(O)O)cc3c2)C(=O)N2[C@H](CC[C@H]2C(=O)N2C[C@H](c3ccccc3)[C@@H](C#N)C2)C1 (relative stereo) [Compound 227, ((7-(((5S,8S,10aR)-8-((rel-trans)-3-cyano-4-phenylpyrrolidine-1-carbonyl)-2-ethyl-6-oxodecahydropyrrolo[1,2-a][1,4]diazocin-5-yl)carbamoyl)naphthalen-2-yl)difluoromethyl)phosphonic acid]
3 | ≤ 300 | 1000 to 10000 | N#C[C@H]1CN(C(=O)[C@@H]2CC[C@@H]3CN(C4CCC4)CC[C@H](NC(=O)c4ccc5ccc(C(F)(F)P(=O)(O)O)cc5c4)C(=O)N32)C[C@@H]1c1ccccc1 (relative stereo) [Compound 228, ((7-(((5S,8S,10aR)-8-((rel-trans)-3-cyano-4-phenylpyrrolidine-1-carbonyl)-2-cyclobutyl-6-oxodecahydropyrrolo[1,2-a][1,4]diazocin-5-yl)carbamoyl)naphthalen-2-yl)difluoromethyl)phosphonic acid]
4 | ≤ 300 | 1000 to 10000 | Cc1ccc2[nH]nc(C(=O)N3CC[C@H](NC(=O)c4ccc5ccc(C(F)(F)P(=O)(O)O)cc5c4)C(=O)N4[C@H](CC[C@H]4C(=O)N4C[C@H](c5ccccc5)[C@@H](C#N)C4)C3)c2c1 (relative stereo) [Compound 233, ((7-(((5S,8S,10aR)-8-(rel-tran)-3-cyano-4-phenylpyrrolidine-1-carbonyl)-2-(5-methyl-1H-indazole-3-carbonyl)-6-oxodecahydropyrrolo[1,2-a][1,4]diazocin-5-yl)carbamoyl)naphthalen-2-yl)difluoromethyl)phosphonic acid]
5 | ≤ 300 | 100 to 1000 | Cc1ccc2[nH]nc(C(=O)N3CC[C@H]4CC[C@@H](C(=O)N5C[C@H](c6ccccc6)[C@@H](C#N)C5)N4C(=O)[C@@H](NC(=O)c4ccc5ccc(C(F)(F)P(=O)(O)O)cc5c4)C3)c2c1 (relative stereo) [Compound 236, ((7-(((5S,8S,10aR)-8-((rel-trans)-3-cyano-4-phenylpyrrolidine-1-carbonyl)-3-(5-methyl-1H-indazole-3-carbonyl)-6-oxodecahydropyrrolo[1,2-a][1,5]diazocin-5-yl)carbamoyl)naphthalen-2-yl)difluoromethyl)phosphonic acid]
6 | 300 to 3000 | 1000 to 10000 | CCN1CC[C@H]2CC[C@@H](C(=O)N3C[C@@H](C#N)[C@H](c4cc[nH]c(=O)c4)C3)N2C(=O)[C@@H](NC(=O)c2ccc3ccc(C(F)(F)P(=O)(O)O)cc3c2)C1 (relative stereo) [Compound 240, ((7-(((5S,8S,10aR)-8-((rel-trans)-3-cyano-4-(2-oxo-1,2-dihydropyridin-4-yl)pyrrolidine-1-carbonyl)-3-ethyl-6-oxodecahydropyrrolo[1,2-a][1,5]diazocin-5-yl)carbamoyl)naphthalen-2-yl)difluoromethyl)phosphonic acid]
7 | 300 to 3000 | 1000 to 10000 | N#C[C@H]1CN(C(=O)[C@@H]2CC[C@@H]3CCN(CC(F)F)C[C@H](NC(=O)c4ccc5ccc(C(F)(F)P(=O)(O)O)cc5c4)C(=O)N32)CC[C@@H]1c1ccccc1 (relative stereo) [Compound 241, ((7-(((5S,8S,10aR)-8-((rel-trans)-3-cyano-4-phenylpiperidine-1-carbonyl)-3-(2,2-difluoroethyl)-6-oxodecahydropyrrolo[1,2-a][1,5]diazocin-5-yl)carbamoyl)naphthalen-2-yl)difluoromethyl)phosphonic acid]
8 | ≤ 300 | 100 to 1000 | O=C(N[C@H]1CN(CC(F)F)CC[C@H]2CC[C@@H](C(=O)N3C[C@H](c4ccccc4)[C@@H](C(F)F)C3)N2C1=O)c1cc2cc(C(F)(F)P(=O)(O)O)ccc2s1 (relative stereo) [Compound 242, ((2-(((5S,8S,10aR)-3-(2,2-difluoroethyl)-8-((rel-trans)-3-(difluoromethyl)-4-phenylpyrrolidine-1-carbonyl)-6-oxodecahydropyrrolo[1,2-a][1,5]diazocin-5-yl)carbamoyl)benzo[b]thiophen-5-yl)difluoromethyl)phosphonic acid]
9 | 300 to 3000 | 1000 to 10000 | N#C[C@H]1CN(C(=O)[C@@H]2CC[C@@H]3CCN(CC(F)F)C[C@H](NC(=O)c4ccc5ccc(C(F)(F)P(=O)(O)O)cc5c4)C(=O)N32)C[C@@H]1c1cc(F)cc(F)c1 (relative stereo) [Compound 246, ((7-(((5S,8S,10aR)-8-((rel-trans)-3-cyano-4-(3,5-difluorophenyl)pyrrolidine-1-carbonyl)-3-(2,2-difluoroethyl)-6-oxodecahydropyrrolo[1,2-a][1,5]diazocin-5-yl)carbamoyl)naphthalen-2-yl)difluoromethyl)phosphonic acid]
10 | ≤ 300 | 100 to 1000 | COC(=O)N1CC[C@H]2CC[C@@H](C(=O)N3C[C@H](c4ccccc4)[C@@H](C#N)C3)N2C(=O)[C@@H](NC(=O)c2cc3cc(C(F)(F)P(=O)(O)O)ccc3s2)C1 (relative stereo) [Compound 250, ((2-(((5S,8S,10aR)-8-((rel-trans)-3-cyano-4-phenylpyrrolidine-1-carbonyl)-3-(methoxycarbonyl)-6-oxodecahydropyrrolo[1,2-a][1,5]diazocin-5-yl)carbamoyl)benzo[b]thiophen-5-yl)difluoromethyl)phosphonic acid]
11 | ≤ 300 | 100 to 1000 | CC(C)CN1CC[C@H]2CC[C@@H](C(=O)N3C[C@@H](C#N)[C@H](c4ccccc4)C3)N2C(=O)[C@@H](NC(=O)c2cc3cc(C(F)(F)P(=O)(O)O)ccc3s2)C1 (relative stereo) [Compound 279, ((2-(((5S,8S,10aR)-8-((rel-trans)-3-cyano-4-phenylpyrrolidine-1-carbonyl)-3-isobutyl-6-oxodecahydropyrrolo[1,2-a][1,5]diazocin-5-yl)carbamoyl)benzo[b]thiophen-5-yl)difluoromethyl)phosphonic acid]
12 | 300 to 3000 | 1000 to 10000 | N#CC1CN(C(=O)C2CCC3CCS(=N)(=O)CC(NC(=O)c4cc5cc(C(F)(F)P(=O)(O)O)ccc5s4)C(=O)N32)CC1c1ccccc1 (single isomer, unassigned) [Compound 7]
13 | ≤ 300 | 100 to 1000 | N#C[C@@H]1CN(C(=O)[C@@H]2CC[C@@H]3CCS(=O)(=O)C[C@H](NC(=O)c4cc5cc(C(F)(F)P(=O)(O)O)ccc5s4)C(=O)N32)C[C@H]1c1ccccc1 (single isomer, unassigned) [Compound 8]
14 | ≤ 300 | ≤ 100 | CC(=O)N1CC[C@H]2CC[C@@H](C(=O)N3C[C@@H](C#N)[C@]4(C3)C(=O)Nc3ccccc34)N2C(=O)[C@@H](NC(=O)c2cc3cc(C(F)(F)P(=O)(O)O)ccc3s2)C1 (single isomer, unassigned) [Compound 12, ((2-(((5S,8S,10aR)-3-acetyl-8-((3S,4′S or 3R,4′R)-4′-cyano-2-oxospiro[indoline-3,3′-pyrrolidine]-1′-carbonyl)-6-oxodecahydropyrrolo[1,2-a][1,5]diazocin-5-yl)carbamoyl)benzo[b]thiophen-5-yl)difluoromethyl)phosphonic acid]
